Key:
TPC1 and HCT116 = assay: Polysome profiling (polysome/monosome ratio); type: cell-based; conditions: 24 hours
Protocol: TPC1 and HCT116 were plated at 6*104/cm2 on 143 cm2 dishes, cultivated o/n, and treated accordingly. Ten minutes before the harvest cultivation media was supplemented with cycloheximide (CHX) at final concentration of 100 μg/ml. Next, cells were washed twice with ice-cold PBS with 100 μg/ml CHX and lysed in polysome preparation lysis buffer (20 mM HEPES pH 7.4, 15 mM MgCl2, 200 mM NaCl, 1% Triton X-100, 100 μg/ml CHX, 2 mM DTT, and 100U SuperaseIN). Lysates were cleared of debris by centrifugation at 20,000g, 4° C. for 10 minutes. Total nucleic acid content in lysates was measured by absorbance at 260 nm and used for sample concentration normalization. Next, 500 μl of the lysate was loaded on 10-60% sucrose gradients in SW41 tubes in lysis buffer lacking Triton X-100. These gradients were prepared using a BioComp system and chilled to 4° C. before use. Samples were ultracentrifuged at 36,000 rpm for 3 hours and 10 min, at 4° C., then samples were fractionated using a BioComp system, monitoring absorbance at 260 nm while collecting fractions of approximately 0.4 ml each.

K1 cells [1] = assay: Annexin V-FITC/PI apoptosis assay by flow cytometry; type: cell-based; conditions: 10 μM nutlin-3a, 25 μM GSK2830371, or both, 72 hours
Protocol: (§1) TPC1, K1, HCT116, MCF7, SJSA, and HEK293FT cells were cultivated in RPMI (TPC1, SJSA), DMEM (K1, MCF7, HEK293FT), and McCoy's (HCT116) media (Gibco, Thermo Fisher Scientific) supplemented with 10% fetal bovine serum (Peak Serum) and 1% antibiotic-antimycotic mixture (Gibco). Cells were plated a day before the treatment and maintained in a humidified atmosphere with 5% of CO2 at 37° C. Both TPC1 and K1 lines were gifts from Dr. Rebecca Schweppe, University of Colorado Anschutz Medical Campus (CU-AMC). Cell line identity has been verified by short tandem repeats profiling at the Cell Technologies Shared Resource, CU-AMC. Colorectal cancer organoid cultures (CRC172) were obtained from the Enteroid Stem Cell Core facility at CU-AMC.
(§2) The fraction of apoptotic cells was determined by Annexin V-FITC/PI assay. Briefly, cells harvested by trypsinization were resuspended in Annexin-V binding buffer (10 mM HEPES pH 7.4, 140 mM NaCl, 2.5 mM CaCl2)). Approximately 2*10^5 cells were labeled with Annexin-V-FITC (Invitrogen) and PI (10 μg/ml, Millipore-Sigma) for 15 minutes in the dark before flow cytometric analysis (Accuri C6, Becton Dickinson). To analyze mitochondrial membrane potential (44m) cells were trypsinized and resuspended in cultivation media. An aliquot of approximately 5*10^5 cells per sample was mixed with tetramethylrhodamine, ethyl ester, perchlorate (TMRE, Thermo Fisher, 100 nM final concentration) solution, incubated for 10 minutes in the dark, and analyzed by flow cytometer.

TPC1 cells [2] = assay: as above; type: cell-based; conditions: 10 μM nutlin-3a, 25 μM GSK2830371, or both, 72 hours
Protocol: as §1, §2

cell viability = assay: Cell viability after single-agent treatment; type: cell-based
p53 = assay: Western blot of p53 in thyroid carcinoma cells; type: cell-based; conditions: TPC1 and K1 cells; 10 μM nutlin-3a, 25 μM GSK2830371; 24 hours
Protocol: (§3) Following a brief sonication (2.5W, 5 sec) and heat denaturation (90° C., 5 min), total protein concentration in whole cell lysates was measured by a BCA Protein Assay Kit (Pierce, Thermo Fisher Scientific). 20 μg of protein per sample was resolved by SDS-PAGE and transferred onto a 0.45 μm PVDF membrane (0.2 μm for ATF3 detection). Membranes were incubated in blocking buffer (5% fat-free milk in wash buffer—20 mM Tris pH 7.6, 150 mM NaCl, 0.2% Tween 20) for an hour at RT and o/n at 4° C. with the primary antibody diluted in a fresh blocking buffer. Next day membranes were washed three times for 10 min in the wash buffer, incubated with HRP-conjugated secondary antibody for an hour at RT, and washed again three times in the wash buffer. SuperSignal West Pico Plus Chemiluminescence Substrate (Pierce) was used for detection and digital images were acquired using an ImageQuant LAS 4000 (GE Healthcare Life Sciences).

K1 cells [3] = assay: RNA-seq transcriptome analysis (DESeq2); type: cell-based, Human; conditions: for differentially expressed mRNAs versus vehicle: nutlin 10 μM, GSK2830371 25 μM, or both, 24 hours
Protocol: (§4) TPC1 and K1 cells were plated at 2*104/cm2 and treated for 24 hours as indicated. Following the treatment period, cells were washed with ice-cold PBS and lysed in TRI Reagent (Millipore Sigma). Quality of the extracted RNA was assessed by Agilent Bioanalyzer 2100 using RNA 6000 Pico chips (Agilent). Single-end 150 bp sequencing of the poly-A (+)-enriched RNA was carried out on the Illumina HiSeq 4000 platform by the Genomics Core facility at the University of Colorado Anschutz.
(§5) Quality of the sequencing data was analyzed using FASTQC (version 0.11.2, available at the website www.bioinformatics.babraham.ac.uk/projects/fastqc and presence of common sequencing contaminants was assessed by FastQ Screen (v0.4.4) available at the website www.bioinformatics.babraham.ac.uk/projects/fastq_screen/. Bases with low quality (Q<10) were 3′ end trimmed and reads shorter than 30 nt were discarded using the Fastx toolkit (v0.0.13.2). Reads were aligned to a GRCh37/hg19 Human reference using TopHat2 (v2.0.13,-b2-sensitive-keep-fasta-order-no-coverage-search-max-multihits 10-library-type fr-firststrand) (Kim et al., 2013) with the UCSC hg19 GTF annotation file provided in the iGenomes UCSC hg19 bundle available at the website: support.illumina.com/sequencing/sequencing_software/igenome.html. Aligned reads with MAPQ<10 quality were removed using SAMtools (v0.1.19). Alignments were then sorted by coordinates, and duplicates were identified using Picard (v1.129). Quality assessment of final mapped reads was conducted using RSeQC (v2.6) (Wang et al., 2012). Gene-level counts were obtained using HTSeq (v0.6.1) (Anders et al., 2015) with the following options (-stranded=reverse -minaqual=10-type=exon-idattr=gene_id_mode=intersection-nonempty) using the iGenomes UCSC hg19 GTF annotation file. Differential gene expression was evaluated using DESeq2 (version 1.6.3) (Love et al., 2014) in R (version 3.1.0), using q<0.05 (FDR<5%) and fold-change>1.5 (Up) or <1/1.5 (Down) as cutoffs for differentially expressed genes. Genome browser snapshots were generated from bedGraph or tgv files using IGV genome viewer (v2.8.10) (Thorvaldsdottir et al., 2013).

TPC1 cells [4] = assay: RNA-seq transcriptome analysis (DESeq2); type: cell-based, Human; conditions: for differentially expressed mRNAs versus vehicle: nutlin 10 μM, GSK2830371 25 μM, or both, 24 hours
Protocol: as §4, §5

PPM1D = assay: Western blot of PPM1D expression; type: cell-based; conditions: 25 μM GSK2830371; 24 hours
Protocol: as §3, with “Protein samples were prepared with cells washed twice with PBS and lysed in modified Laemmli buffer (Laemmli, 1970) (1% w/v SDS, 10% w/v glycerol, 100 mM Tris pH 7.2, protease (complete Mini, Roche) and phosphatase (PhosSTOP, Roche) inhibitors). Following” for “Following”

HCT116 xenograft tumors = assay: HCT116 xenograft tumor model; type: in vivo; conditions: nude mice, 200 mg/kg nelfinavir and/or 200 mg/kg milademetan
Protocol: Athymic nude mice (NU/NU) weighting 20 to 30 grams and being 8-12 weeks of age (Charles River Labs) were housed in cages under standard conditions (22° C., 50% relative humidity, 12-h light/dark cycles) and provided with food and water ad libitum. Next, […] exponentially growing HCT116 cells resuspended in 100 μl Matrigel/PBS (5 mg/ml final) were injected subcutaneously into both flanks. Tumors grew for 10-14 days before treatment initiation. Experimental animals were given 200 mg/kg nelfinavir and/or 200 mg/kg Milademetan (Rain Therapeutics) by oral gavage once daily, 5 days a week. Tested compounds were prepared in a mixture of 2% Klucel (hydroxypropyl cellulose), 0.5% Tween 80, and 35% ethanol. Tumor volumes (v) were estimated daily, 5 days a week using caliper measurements and formula v=(I×w^2)/2, where I represents the greatest length of the tumor and w is tumor width in the perpendicular axis. Average volumes of the right and left flank tumors were used for plotting and calculations. Equal ratios of male and female mice were used in treatment groups (5 males and 5 females). All in vivo experiments were approved by the Institutional Animal Care and Use Committee at the CU-AMC (IACUC protocol 00432).
(§6) After indicated treatments, cells were washed with PBS, total RNA was extracted using Trizol substitute (38% Phenol, saturated, pH 4.3, 0.8 M guanidine thiocyanate, 0.4 M ammonium thiocyanate, 0.1 M sodium acetate, pH 5.0, 5% glycerol), and converted to cDNA with High-Capacity cDNA Reverse Transcription Kit (Thermo Fisher). Next, diluted cDNA was used in quantitative PCR reaction using SYBR Select Master Mix for CFX (Thermo Fisher). Detected mRNA levels were normalized to 18s rRNA values.
Tumors fixed in 4% formaldehyde were transferred to 70% ethanol and embedded in paraffin at the Pathology Shared Resource-Research Histology, University of Colorado Anschutz Medical Campus. Three tumors from each experimental group were sectioned, stained with DAPI and Ki67 primary antibody using Akoya Opal technology (Akoya Biosciences), and scanned at six representative regions with Vectra 3.0 (Akoya Biosciences) at the Human Immune Monitoring Shared Resource (University of Colorado Anschutz). Next, InForm image analysis software (Akoya Biosciences) was used for automated identification of nuclei based on the DAPI signal. Ki67 nuclear fluorescence was outputted for all nuclei.

ATF3 and ATF4 mRNA = ATF3 and ATF4 mRNA induction (RNA-seq, Q-RT-PCR); type: cell-based, Human; conditions: TPC1, K1, and four other cell lines; 24 hours
From the text: as §6
as §4, with “Anschutz. […]” for “Anschutz.”

ATF3 and ATF4 gene loci = assay: GRO-seq transcriptional activity at ATF3 and ATF4 gene loci; type: cell-based; conditions: 60 minutes of nutlin treatment (10 μM); three different cell lines
diverse cell types = assay: Annexin V-FITC/PI apoptosis assay, elF2α plus MDM2 inhibition; type: cell-based
Protocol: as §1
as §2, with “To analyze mitochondrial membrane potential (44m) cells were trypsinized and resuspended in cultivation media.” left out

[5] = FDR<5%, adjusted fold change>1.5

## Cc1ncc(Cl)cc1NCc1ccc(C(=O)N[C@@H](CC2CCCC2)C(=O)NC2CC2)s1 [GSK2830371]
TPC1 and HCT116
  polysome/monosome ratio: decreases in the polysome/monosome ratio
K1 cells [1]
  apoptosis (Annexin V-FITC/PI): does not stabilize p53 or induce apoptosis
TPC1 cells [2]
  apoptosis (Annexin V-FITC/PI): does not stabilize p53 or induce apoptosis
Cell viability
  effects on cell viability when administered alone: limited effects on cell viability
p53
  p53 stabilization: does not stabilize p53
K1 cells [3]
  differentially expressed mRNAs versus vehicle: had little impact on the transcriptome
TPC1 cells [4]
  differentially expressed mRNAs versus vehicle: had little impact on the transcriptome
PPM1D
  PPM1D expression: reduces PPM1D expression

## COc1cc(C(=O)O)ccc1NC(=O)[C@@H]1N[C@@H](CC(C)(C)C)[C@](C#N)(c2ccc(Cl)cc2F)[C@H]1c1cccc(Cl)c1F [idasanutlin]
Cell viability
  effects on cell viability when administered alone: limited effects on cell viability

## CC1(C)CCC2(CC1)N[C@@H](C(=O)N[C@@H]1CC[C@@H](C(N)=O)OC1)[C@H](c1ccnc(Cl)c1F)[C@]21C(=O)Nc2cc(Cl)ccc21 [milademetan]
Cell viability
  effects on cell viability when administered alone: limited effects on cell viability
HCT116 xenograft tumors; oral gavage
  animal survival (Kaplan Meier; humane endpoint tumor size>1000 mm^3): had to be sacrificed at the humane endpoint
HCT116 xenograft tumors; oral gavage once daily, 5 days a week
  tumor growth: Tumors continued to grow

## COc1ccc(C2=N[C@@H](c3ccc(Cl)cc3)[C@@H](c3ccc(Cl)cc3)N2C(=O)N2CCNC(=O)C2)c(OC(C)C)c1 [nutlin-3a]
TPC1 and HCT116
  polysome/monosome ratio: decreases in the polysome/monosome ratio
K1 cells [1]
  apoptosis (Annexin V-FITC/PI): does not cause p53-dependent apoptosis
TPC1 cells [2]
  apoptosis (Annexin V-FITC/PI): does not cause p53-dependent apoptosis
ATF3 and ATF4 mRNA
  ATF3 induction at the mRNA level: clear induction of ATF3
  ATF4 induction at the mRNA level: not ATF4
Cell viability
  effects on cell viability when administered alone: limited effects on cell viability
p53
  p53 stabilization: stabilizes p53
ATF3 and ATF4 gene loci
  transactivation of ATF3 (GRO-seq): rapid transactivation of ATF3
  transactivation of ATF4 (GRO-seq): not ATF4
K1 cells [3]; [5]
  genes induced by both nutlin and nutlin+GSK2830371: 367 genes
K1 cells [3]
  differentially expressed mRNAs versus vehicle: hundreds of mRNAs significantly upregulated or downregulated
TPC1 cells [4]; [5]
  genes induced by both nutlin and nutlin+GSK2830371: 1924 genes
TPC1 cells [4]
  differentially expressed mRNAs versus vehicle: hundreds of mRNAs significantly upregulated or downregulated

## O=C(/C=C/c1ccccc1)NC(NC(=S)Nc1ccc(Cl)cc1)C(Cl)(Cl)Cl (stereo not drawn) [sal003]
Diverse cell types
  synergy with small molecule inhibitors of MDM2 to elicit p53-dependent cell death: synergize with small molecule inhibitors of MDM2 to elicit p53-dependent cell death

## COc1ncc(-c2nc3c(n2C(C)C)[C@H](c2ccc(Cl)cc2)N(c2cc(Cl)cn(C)c2=O)C3=O)c(OC)n1 [siremadlin/HDM201, siremadlin]
Cell viability
  effects on cell viability when administered alone: limited effects on cell viability
